Where two headings read alike, the source gives them in different places.
Columns and labels:
[1] = tested on: Human muscle rhabdomyosarcoma (RMS) cell line (ATCC CCL-136); test: MTT cell proliferation (cytotoxicity) assay on RMS cells; assay type: cell-based; conditions: for IC50: MTT, 24 h incubation with sample
[2] = MTT cytotoxicity assay on noncancerous LLC-PK1 cells; assay type: cell-based, Pig; conditions: pig, LLC-PK1 pig kidney epithelial cells, read-out: % Cell Viability on Noncancer LLC-PK1 cells
Procedure: (§1) Pig Kidney Epithelial (LLC-PK1) cell line (ATCC® CL-101™) was a generous gift of Prof. Jeong Hill Park, Research Institute of Pharmaceutical Science (College of Pharmacy, Seoul National University, Seoul 151-172, Korea).
(§2) RMS or LLC-PK1 cells were seeded and cultured in EMEM medium (Gibco, Waltham, MA, USA) supplemented with 10% fetal calf serum (FCS) (Gibco), 2 mM L-glutamine, 100 IU/mL penicillin and 100 µg/mL streptomycin (Sigma-Aldrich, St. Louis, MO, USA) in a humidified atmosphere of 5% CO2 at 37 °C.
(§3) The samples were dissolved in dimethyl sulfoxide (DMSO) at 10 mM and then diluted with culture medium to get three concentrations of 100; 50; 10 µM or 25; 12.5; 2.5 µM for cell proliferation assays. […] DMSO at different concentrations or was used as a blank control. Paclitaxel (Anzatax®, Mayne Pharma, Australia) was used as the reference compound at the concentration of 1, 5 and 10 µM (directly dissolved in culture medium).
(§4) The cells were cells were seeded in 96-well plates at 4.2 × 10^4 cell/cm^2. After 24 h of incubation at 37 °C, 5% CO2, 100 μL of chalcone samples at tested concentrations, reference compound, and blank control (DMSO) was added and incubated for 24 hours at 37 °C, 5% CO2.
(§5) Cell viability was evaluated as mitochondrial succinate dehydrogenase (SDH) activity, a marker of viable cells, using MTT test as described by Denizot and Lang. Briefly, SDH activity was detected after 3 hours incubation in culture medium without FCS containing 0.05 mg/mL MTT (3-4,5-dimethyl-thiazol-2-yl-2,5 diphenyl-tetrazolium bromide, Sigma-Aldrich), which is converted into formazan dissolved in acidified isopropanol (Merck, Darmstadt, Germany) by agitation for 10 min at room temperature. The produced purple solution was spectrophotometrically measured at 570 nm on Multiskan™ FC microplate Photometer (Thermo Scientific, Waltham, MA, USA).
(§6) Each assay was done in triplicate and the standard deviation of absorbance was less than 10% of the mean. The results were expressed as Mean + SD of six cultures of one representative experiment and statistically analyzed by Mann-Whitney test with SPSS 22.0 for Windows software. Threshold of significance was set at p < 0.05.
(§7) The IC50 values were calculated based on the linear regression between the concentrations of testing compound and the inhibition percentages of cells. The chalcone compounds with significant potential against RMS cells (IC50 < 20 μM) were then tested for their toxicity on LLC-PK1 cells.

[3] = as above; assay type: cell-based; conditions: pig, LLC-PK1 pig kidney epithelial cells, read-out: % Cell Viability on Noncancer LLC-PK1 cells
[4] = tested on: Pig Kidney Epithelial (LLC-PK1) cell line (ATCC CL-101); test: as above; assay type: cell-based; conditions: LLC-PK1 cells
Procedure: as §1, §2, §3, §4, §5, §6, §7

Molecule	IC50 ([1]; Homo sapiens, 24 h) [µM]	IC50 [1] [µM]	melting point [°C]	further results
O=C(/C=C/c1ccccc1O)c1cccs1 [Compound 11]	48.8 ± 2.42	–	–	–
(E)-3-(Pyridin-2-yl)-1-(2-hydroxyphenyl)prop-2-en-1-one [Compound 17]	–	92.9 ± 6.14	–	–
O=C(/C=C/c1ccc(OCc2ccccc2)cc1)c1ccc2c(c1)Nc1ccccc1S2 [Compound 2, (E)-3-(4-Benzyloxyphenyl)-1-(10H-phenothiazin-2-yl)prop-2-en-1-one]	–	–	215 to 216	–
COc1ccc(C(=O)/C=C/c2cccnc2)c(O)c1 [Compound 20, (E)-3-(Pyridin-3-yl)-1-(2-hydroxy-4-methoxyphenyl)prop-2-en-1-one]	20.8 ± 1.33	–	128 to 129	–
CC(=O)O[C@H]1C(=O)[C@@]2(C)[C@H]([C@H](OC(=O)c3ccccc3)[C@]3(O)C[C@H](OC(=O)[C@H](O)[C@@H](NC(=O)c4ccccc4)c4ccccc4)C(C)=C1C3(C)C)[C@]1(OC(C)=O)CO[C@@H]1C[C@@H]2O [Paclitaxel, reference compound]	10.8 ± 0.47	–	–	viability at 24 h, 10 µM ([2]; 10 μM (paclitaxel reference)): 108 ± 8.2%; viability at 24 h, 2 µM ([3]; 2 μM (paclitaxel reference)): 103 ± 6%; viability at 24 h, 20 µM ([3]; 20 μM (paclitaxel reference)): 75 ± 3.6%
CN(C)c1ccc(/C=C/C(=O)c2ccco2)cc1 [Compound 15]	77.3 ± 4.69	–	–	–
COc1cc(/C=C/C(=O)c2cccs2)cc(OC)c1OC [Compound 13]	26.6 ± 1.42	–	–	–
O=C(/C=C/c1ccc(Cl)cc1)c1cccs1 [Compound 10]	49.6 ± 3.2	–	–	–
O=C(/C=C/c1cccc(Br)c1)c1ccc2c(c1)Nc1ccccc1S2 [Compound 3, (E)-3-(3-Bromophenyl)-1-(10H-phenothiazin-2-yl)prop-2-en-1-one]	–	–	230 to 232	–
COc1cc(/C=C/C(=O)c2ccccn2)cc(OC)c1OC [Compound 16]	< 20	19.6 ± 1.04	–	toxicity on the noncancerous LLC-PK1 cell line (in words) [4]: almost complete absence of toxicity; viability at 24 h, 10 µM ([2]; 10 μM): 99.1 ± 3.1%; viability at 24 h, 50 µM [2]: 102 ± 12.1%; viability at 24 h, 100 µM [2]: 104 ± 6.5%
COc1ccc(C(=O)/C=C/c2ccccn2)c(O)c1 [Compound 19, (E)-3-(Pyridin-2-yl)-1-(2-hydroxy-4-methoxyphenyl)prop-2-en-1-one]	26.6 ± 1.72	–	130 to 131	–
COc1ccc(/C=C/C(=O)c2ccc3c(c2)Nc2ccccc2S3)c(OC)c1 [Compound 8, (E)-3-(2,4-Dimethoxyphenyl)-1-(10H-phenothiazin-2-yl)prop-2-en-1-one]	< 20	19.7 ± 1.63	178 to 179	toxicity on the noncancerous LLC-PK1 cell line (in words) [4]: almost complete absence of toxicity; viability at 24 h, 10 µM ([2]; 10 μM): 97.3 ± 10.2%; viability at 24 h, 50 µM [2]: 103 ± 6.4%; viability at 24 h, 100 µM [2]: 105 ± 5.4%
(E)-3-(Pyridin-3-yl)-1-(2-hydroxyphenyl)prop-2-en-1-one [Compound 18]	–	91.1 ± 2.45	–	–
O=C(/C=C/c1ccccc1Cl)c1ccc2c(c1)Nc1ccccc1S2 [Compound 7, (E)-3-(2-Chlorophenyl)-1-(10H-phenothiazin-2-yl)prop-2-en-1-one]	< 20	18 ± 1.63	202 to 203	toxicity on the noncancerous LLC-PK1 cell line (in words) [4]: almost complete absence of toxicity; viability at 24 h, 10 µM ([2]; 10 μM): 100 ± 6.5%; viability at 24 h, 50 µM [2]: 109 ± 10.9%; viability at 24 h, 100 µM [2]: 94.8 ± 7.6%
O=C(/C=C/c1cccs1)c1ccc2c(c1)Nc1ccccc1S2 [Compound 9, (E)-3-(Thiophen-2-yl)-1-(10H-phenothiazin-2-yl)prop-2-en-1-one]	< 20	12.5 ± 1.74	229 to 230	toxicity on the noncancerous LLC-PK1 cell line (in words) [4]: almost complete absence of toxicity; viability at 24 h, 10 µM ([2]; 10 μM): 98.8 ± 10.6%; viability at 24 h, 50 µM [2]: 98.2 ± 7.3%; viability at 24 h, 100 µM [2]: 97.1 ± 5%
CN(C)c1ccc(/C=C/C(=O)c2ccc3c(c2)Nc2ccccc2S3)cc1 [Compound 1, (E)-3-(4-(N,N-Dimethylamino)phenyl)-1-(10H-phenothiazin-2-yl)prop-2-en-1-one]	–	–	232 to 233	–
COc1cc(/C=C/C(=O)c2ccco2)cc(OC)c1OC [Compound 14]	29.1 ± 1.82	–	–	inhibition at 25 µM ([1]; Homo sapiens, 25 μM): 42.9%; inhibition at 50 µM ([1]; Homo sapiens, 50 μM): 26.5%; inhibition at 100 µM ([1]; Homo sapiens, 100 μM): 15.1%
